# According to patent US4510143A, “Antiallergic pyrimido[1,2-a]quinoxalin-2-carboxylic acid derivatives” (Roussel Uclaf, priority 1982, dated 1985):
# System: passive cutaneous reaction mediated by Ig G antibodies
# Experiment: Passive cutaneous anaphylaxis in the rat (PCR), inhibition of Ig G PCR after oral administration
# Assay type: in vivo
# Settings: male Wistar rats, 4 hour sensitization, 1 mg ovalbumen challenge
# Description: Passive cutaneous anaphylaxis in the rat (PCR)
# Passive cutaneous anaphylaxis in the rat was carried out in male Wistar rats weighing 180-200 g which were sensitized by intradermal injection into four sites on shaved backs to produce a passive cutaneous reaction mediated by Ig G antibodies (a 4 hour sensitization following injection of antiserum heated at 56° C. for one hour). Antigen challenge was carried out in the same way with 1 mg of ovalbumen together with 0.5 ml of 1% Evans blue dye solution being injected intravenously and 30 minutes later, the animals were killed and the severity and area of each blue spot was scored when viewed from the reverse side of the skin.
Structure (SMILES),% inhibition of Ig G PCR (1 mg/kg),% inhibition of Ig G PCR (10 mg/kg),% inhibition of Ig G PCR (0.1 mg/kg)
"O=C(O)c1cnc2cnc3ccccc3n2c1=O [Example 1, 1-oxo-1H-pyrimido[1,2-a]quinoxaline-2-carboxylic acid]",9.9%,50.3%,
"O=C(Nc1nnn[nH]1)c1cnc2cnc3ccccc3n2c1=O [Example 2, N-(5-Tetrazolyl)-1-oxo-1H-pyrimido[1,2-a]quinoxaline-2-carboxamide]",29.9%,48.6%,
"O=C(O)c1cnc2c(=O)[nH]c3ccccc3n2c1=O [Example 8, 1,5-dioxo-1,6-dihydropyrimido[1,2-a]quinoxalin-2-carboxylic acid]",52.4%,94.1%,40.5%
O=C(Nc1nn[nH]n1)c1cnc2c(=O)[nH]c3ccccc3n2c1=O [Example 9],23%,35%,19%
Cn1c(=O)c2ncc(C(=O)O)c(=O)n2c2ccccc21 [Example 10],15.6%,20.5%,
